Test results as given in US20050037446A1, “Agents that recognize src when phosphorylated at serine 17” (priority 2001, published 2005).

Assays:
Src++ and SYF cells = assay: MTT assay for cell proliferation; format: cell-based, mouse; details: for Stimulation of cell growth: SYF cells, 48 hours
Description: To determine the effect of Src on cell proliferation, the following protocol was used. Src^++ and SYF cells were serum-starved overnight and plated onto 96 well plates. Cells were then treated with PDGF, EGF, Forskolin, H89, and/or PD98059 (PD, 10 μM, Cal Biochem). Cells were analyzed 48 hours later by MTT assay and data quantified (n=4±S.E.). The MTT assay for cell proliferation was conducted as follows (Schmitt and Stork, Mol. Cell. Biol. 21:3671-83, 2001). Briefly, 2.5 hours prior to lysis, 20 μl of sterile […] MTT (Sigma) was added to the cells and allowed to incubate at 37° C. At the appropriate time, cells were lysed and proteins solubilized in 50% volume/volume H2O and N,N,-dimethylformamide containing 20% SDS, 0.5% of 80% acetic acid, and 0.4% 1M HCL Plates were read using a microplate reader and presented as the difference between optical densities at […].
To quantitate cell proliferation, cells were analyzed 48 hours later by MTT assay (see EXAMPLE 3) and data was quantified (n=4±S.E.). […] Expression of Flag-Src in SYF cells restored Forskolin's ability to inhibit PDGF- and EGF-mediated cell growth.

[1] = test system: purified catalytic subunit of PKA; assay: PKA kinase assay on membrane-spotted Src peptides, phospho-PKA substrate antibody; format: biochemical; details: 12.5 nM PKA catalytic subunit, 30° C., 30 minutes
Description: A peptide identical to amino acids 9-25 within the N-terminus of wild-type Src (WT) (KDASQRRRSLEPAENVH; SEQ ID NO: 12), which contains the potential PKA phosphorylation site (underlined), was generated using an Auto-Spot Robot ASP 222 (ABiMED, Langenfeld, Germany) and spotted onto a nitrocellulose membrane. Control peptides with serines 12 and/or 17 replaced by alanine (S12A, SEQ ID NO: 13; S17A, SEQ ID NO: 14; and S12AS17A, SEQ ID NO: 15), serine 17 replaced by aspartate (S17D, SEQ ID NO: 16), and arginines at 14-16 replaced by alanine (R14A, SEQ ID NO: 17; • R15A, SEQ ID NO: 18; R16A, SEQ ID NO: 19), as well as peptides designed to both a scrambled (SEQ ID NO: 20) and an unrelated (FLAG) sequence (SEQ ID NO: 21), were also generated and spotted onto the membrane.
Using a method previously described (Tegge et al., Biochen. 34:10569-77, 1995), the membranes were pre-incubated at room temperature (RT) overnight (ON) in buffer containing 20 mM Hepes, pH 7.4, 100 mM NaCl, 2 mM MgCl2, 1 mM EDTA, 1 mM DTI, and 0.2 mg/ml BSA. Membranes were then blocked at 30° C. for one hour in buffer containing 20 mM Hepes, pH 7.4, 100 mM NaCl, 2 mM MgCl2, 1 mM EDTA, 1 mM DTT, and 1 mg/ml BSA and 30 μM cold ATP. […] The membranes were then blocked, probed, and analyzed using chemiluminescence according the manufacturers guidelines for the phospho-PKA substrate antibody. […]

Src = Src autophosphorylation at tyrosine 416 (Western blot); format: cell-based; details: SYF cells
Description: To examine the mechanism of cAMP regulation of Src, Src kinase activity was assayed in vivo by monitoring autophosphorylation of Src at tyrosine 416 (Tyr416) using previously disclosed methods (Brown and Cooper, Biochim. Biophys. Acta 1287:121-49, 1996; Martin, Nat. Rev. Mol. Cell. Biol. 2:467-75,2001).
[…] Cell lysates were prepared, and Src immunopreciptiated and analyzed by Western blot for either tyrosine phosphorylation at site 416 (p416Src) using phospho-Src (Tyr416) antibodies (Cell Signaling Technology), Flag-Src, or analyzed by Western blot for either PKA phosphorylation or Src (using Src antibodies, Santa Cruz Biotechnology Inc.), using the methods described above. Alternatively, Flag-Src was immunoprecipitated from the cell lysates and analyzed by Western blot for either Cb1 or Flag-Src.
The activation of wild type Src by Forskolin was confirmed by observing autophosphorylation of Src at Tyr416 and using an in vitro kinase assay. To measure autophosphorylation of Src at Tyr416, SYF cells were transfected with either Flag-Src (WT) or Flag-SrcS17A and treated with Forskolin and PDGF or EGF, as described above. Flag-Src was immunoprecipitated from cell lysates and analyzed by Western blot for either phosphorylation of Src on Tyr416 or the presence of Flag-Src. […]

Rap1 = Rap1 activation affinity assay (GST-RalGDS pull-down), NIH3T3 cells; format: cell-based; details: NIH3T3 cells, 10 μM, five minutes
Description: NIH3T3 cells (American Type Culture Collection, ATCC, Manassas, Va.) were cultured in Dulbecco-Modified Eagle Medium (DMEM) plus 10% fetal calf serum, penicillin/streptomycin, and L-glutamine at 37° C. in 5% CO2. Cells were maintained in serum-free DMEM for 16 hours at 37° C. in 5% CO2 prior to treatment. NIH3T3 cells were trasfected with Flag-Rap1 (see Vossler et al., Cell, 89:73-82, 1997) or stimulated with Forskolin (10 μM, Cal Biochem, Riverside, Calif.) for five minutes. Forskolin treated cells received either a pretreatment or post-treatment with 10 μM N-[2(Bromocimamylamino) ethyl]-5-isoquinolinesulfonamide (H89) (Cal Biochem, Riverside, Calif.) for 20 minutes.
Cells were co-transfected with Flag-Rap1 at seventy to eighty percent confluency with the cDNA using a Lipofectamine 2000 kit (Gibco BRL, Rockville, Md.) according to the manufacturer's instructions. The control vector, pcDNA3 (Invitrogen Corp.), was included in each set of transfections to assure that each plate received the same amount of DNA. Following transfection, cells were allowed to recover in serum containing media for 24 hours. Cells were then starved overnight in serum-free DMEM before treatment and lysis.
After treatment, cells were lysed in ice-cold lysis buffer (50 mM Tris-HCL (pH 8.0), 10% glycerol, 1% nonidet P40, 200 mM NaCl, 2.5 mM MgCl2, 1 mM phenylmethylsulfonyl fluoride, 1 μM leupeptin, 10 μln soybean trypsin inhibitor, 10 mM NaF, 0.1 μM aprotinin, and 1 mM NaVO4). Nuclei and cytoskeleton were removed from equivalent amounts of lysate by centrifugation at 5,000 rpm for five minutes. The supernatant was centrifuged at 100,000×g for one hour at 4° C. and, the resultant membrane was resuspended in cold lysis buffer. Aliquots of the membrane fraction were analyzed for the presence of C3G by Western blotting. The cytosolic or membrane fractions of treated or untreated cells were mixed with equivalent amounts of lysates from untreated Flag-Rap1 transfected cells. The mixture was incubated at 37° C. for five minutes and equal amounts of lysate were analyzed using the Rap1 activation assay to monitor Flag-Rap 1 activation by Gst-RalGDS.
The Rap1 activation affinity assay was performed as follows. A GST fusion protein of the Rap1-binding domain of RalGDS (GST-RalGDS, Dr. Bos, Utrecht University, The Netherlands) was expressed in E. coli following induction by isopropyl-1thio-β-D-galactopyranoside. Active Rap1 was isolated as previously described (Franke et al., EMBO J. 16:252-9, 1997). Briefly, equivalent amounts of supernatants (500 μg) were incubated with GST-RalGDS-Rap1 binding domain coupled to glutathione beads. Following a one hour incubation at 4° C., beads were pelleted and rinsed threes times with ice-cold lysis buffer. […] Proteins were detected using enhanced chemiluminescence.

[2] = test system: T1, Src 9-25 control peptide S12A
T1 sequence: KDAAQRRRSLEPAENVH

[3] = test system: T2, peptide identical to amino acids 9-25 within the N-terminus of wild-type Src (WT)
T2 sequence: KDASQRRRSLEPAENVH

For COc1cccc(-c2cc(=O)c3ccccc3o2)c1N [PD98059], which “PDGF stimulation of proliferation in presence of MEK inhibitor” value (Src++ and SYF cells; Src++ and SYF cells, 10 μM) is on record?
Its value is “dependent on ERK signaling”.

What about the “Effect on PDGF- and EGF-stimulated SYF cell growth” value (Src++ and SYF cells; transfected SYF cells, pretreatment) of the same compound?
The value was “blocked”.

How did the “Recognition by phospho-PKA substrate antibody after PKA kinase assay” value [1] turn out when “KDASQRRRSLEPAENVH (listed as Homo sapiens) [WT, peptide identical to amino acids 9-25 of wild-type Src]” was run?
Its value is “recognized”.

For “S12A: control Src 9-25 peptide with serine 12 replaced by alanine (KDAAQRRRSLEPAENVH)”, which “Recognition by phospho-PKA substrate antibody after PKA kinase assay” value [1] is on record?
Its value is “recognized”.

epidermal growth factor [EGF] was tested. Which “Stimulation of cell growth” value (Src++ and SYF cells) did it give?
The value was “stimulated SYF cell growth”.

What about the “Activation of wild type Src and SrcS17A by growth factor” value (Src) of the same compound?
Its value is “activated both wild type Src and SrcS17A equally”.

Which “Stimulation of cell growth” value (Src++ and SYF cells) does the source give for platelet-derived growth factor [PDGF] here?
Its value is “stimulated SYF cell growth”.

What about the “Activation of wild type Src and SrcS17A by growth factor” value (Src) of the same compound?
The value was “activated both wild type Src and SrcS17A equally”.

prostaglandin E [PGE1] was tested. Which “Activation of endogenous Rap1” value (Rap1) did it give?
The value was “activated Rap1”.

Which results are given for purified catalytic subunit of PKA?
phosphorylation of spotted peptide, detected with the phospho-PKA substrate antibody [2]: Only the peptides containing Ser17 and adjacent arginines (WT and S12A) were recognized by the antibody, consistent with the consensus PKA recognition motif.; phosphorylation of spotted peptide, detected with the phospho-PKA substrate antibody [3]: Only the peptides containing Ser17 and adjacent arginines (WT and S12A) were recognized by the antibody, consistent with the consensus PKA recognition motif.
